Experimental data: PubChem BioAssay (NCI)
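Briefly, cells in 96-well plates were exposed to five compound concentrations for 48 h, and endpoints were estimated by linear interpolation. Definition used: TGI = concentration required for complete inhibition of growth.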

Columns and labels:
Assay in all cases: growth of human tumour cells (NCI), 48 h
OVCAR-8 ovarian = system: OVCAR-8 ovarian
DMS 273 small cell lung = system: DMS 273 small cell lung
SNB-19 CNS = system: SNB-19 CNS
KM12 colon = system: KM12 colon
U251 CNS = system: U251 CNS
786-0 renal = system: 786-0 renal
SR leukemia = system: SR leukemia
IGROV1 ovarian = system: IGROV1 ovarian
RPMI-8226 leukemia = system: RPMI-8226 leukemia
RXF 393 renal = system: RXF 393 renal
CAKI-1 renal = system: CAKI-1 renal
HOP-92 NSCLC = system: HOP-92 NSCLC
SN12C renal = system: SN12C renal
K-562 leukemia = system: K-562 leukemia
HL-60(TB) leukemia = system: HL-60(TB) leukemia
DLD-1 colon = system: DLD-1 colon
XF 498 CNS = system: XF 498 CNS
NCI-H460 lung = system: NCI-H460 lung
HCC-2998 colon = system: HCC-2998 colon
OVCAR-4 ovarian = system: OVCAR-4 ovarian
MOLT-4 leukemia = system: MOLT-4 leukemia
COLO 205 colon = system: COLO 205 colon
UACC-62 melanoma = system: UACC-62 melanoma
HT29 colon = system: HT29 colon
HOP-18 NSCLC = system: HOP-18 NSCLC
M19-MEL melanoma = system: M19-MEL melanoma
NCI-H522 lung = system: NCI-H522 lung
SW-620 colon = system: SW-620 colon
LXFL 529 NSCLC = system: LXFL 529 NSCLC
OVCAR-3 ovarian = system: OVCAR-3 ovarian
TK-10 renal = system: TK-10 renal
HOP-62 NSCLC = system: HOP-62 NSCLC
KM20L2 colon = system: KM20L2 colon
OVCAR-5 ovarian = system: OVCAR-5 ovarian
SF-268 CNS = system: SF-268 CNS
LOX IMVI melanoma = system: LOX IMVI melanoma
ACHN renal = system: ACHN renal
SK-MEL-5 melanoma = system: SK-MEL-5 melanoma
HCT-116 colon = system: HCT-116 colon
SF-539 CNS = system: SF-539 CNS
HCT-15 colon = system: HCT-15 colon
M14 melanoma = system: M14 melanoma
A498 renal = system: A498 renal
SF-295 CNS = system: SF-295 CNS
SK-MEL-28 melanoma = system: SK-MEL-28 melanoma
NCI-H23 lung = system: NCI-H23 lung
CCRF-CEM leukemia = system: CCRF-CEM leukemia
UACC-257 melanoma = system: UACC-257 melanoma
A549 NSCLC = system: A549 NSCLC
MALME-3M melanoma = system: MALME-3M melanoma
EKVX NSCLC = system: EKVX NSCLC
NCI-H226 lung = system: NCI-H226 lung
MDA-MB-231 breast = system: MDA-MB-231 breast
MDA-MB-435 = system: MDA-MB-435
SNB-75 CNS = system: SNB-75 CNS
BT-549 breast = system: BT-549 breast
SK-MEL-2 melanoma = system: SK-MEL-2 melanoma
NCI/ADR-RES ovarian = system: NCI/ADR-RES ovarian
HS 578T breast = system: HS 578T breast
MDA-N = system: MDA-N
UO-31 renal = system: UO-31 renal
MCF7 breast = system: MCF7 breast
PC-3 prostate = system: PC-3 prostate
T-47D breast = system: T-47D breast
SK-OV-3 ovarian = system: SK-OV-3 ovarian
DU-145 prostate = system: DU-145 prostate
DMS 114 small cell lung = system: DMS 114 small cell lung
SNB-78 CNS = system: SNB-78 CNS

With CC1OC(O)CC(OC(=O)c2ccccc2)C1OC(=O)c1ccccc1 (stereo not drawn) the TGI (OVCAR-8 ovarian) was 31.6 µM, the TGI (DMS 273 small cell lung) was 29.5 µM and the TGI (SNB-19 CNS) was > 100 µM. The TGI (KM12 colon) was > 100 µM, the TGI (U251 CNS) was > 100 µM and the TGI (786-0 renal) was 82.7 µM. The TGI (SR leukemia) was 37.1 µM, the TGI (IGROV1 ovarian) was > 100 µM and the TGI (RPMI-8226 leukemia) was 31.8 µM. The TGI (RXF 393 renal) was 39.3 µM, the TGI (CAKI-1 renal) was 63.1 µM and the TGI (HOP-92 NSCLC) was 35 µM. For the same compound, the TGI (SN12C renal) was 32.3 µM, the TGI (K-562 leukemia) was 57.5 µM and the TGI (HL-60(TB) leukemia) was 36 µM. The TGI (DLD-1 colon) was 28.4 µM, the TGI (XF 498 CNS) was 34.6 µM and the TGI (NCI-H460 lung) was > 100 µM. The TGI (HCC-2998 colon) was > 100 µM, the TGI (OVCAR-4 ovarian) was 28.8 µM and the TGI (MOLT-4 leukemia) was 39 µM. For the same compound, the TGI (COLO 205 colon) was 80.9 µM, the TGI (UACC-62 melanoma) was 31.5 µM and the TGI (HT29 colon) was 42.2 µM. For the same compound, the TGI (HOP-18 NSCLC) was 56.8 µM, the TGI (M19-MEL melanoma) was 31.6 µM and the TGI (NCI-H522 lung) was > 100 µM. The TGI (SW-620 colon) was 26.7 µM, the TGI (LXFL 529 NSCLC) was 29.8 µM and the TGI (OVCAR-3 ovarian) was 33.4 µM. The TGI (TK-10 renal) was > 100 µM, the TGI (HOP-62 NSCLC) was > 100 µM and the TGI (KM20L2 colon) was > 100 µM. For the same compound, the TGI (OVCAR-5 ovarian) was > 100 µM, the TGI (SF-268 CNS) was 30 µM and the TGI (LOX IMVI melanoma) was 23.1 µM. The TGI (ACHN renal) was > 100 µM, the TGI (SK-MEL-5 melanoma) was 31.4 µM and the TGI (HCT-116 colon) was 23.3 µM. The TGI (SF-539 CNS) was 31.7 µM, the TGI (HCT-15 colon) was 29.3 µM and the TGI (M14 melanoma) was 30.3 µM. The TGI (A498 renal) was > 100 µM, the TGI (SF-295 CNS) was > 100 µM and the TGI (SK-MEL-28 melanoma) was 29.6 µM. The TGI (NCI-H23 lung) was 30.8 µM, the TGI (CCRF-CEM leukemia) was 38.2 µM and the TGI (UACC-257 melanoma) was 29.4 µM. The TGI (A549 NSCLC) was > 100 µM and the TGI (MALME-3M melanoma) was 30.2 µM.
CCCCCNC1=CC(=O)c2ccccc2C1=O was tested, and the TGI (OVCAR-8 ovarian) was 51.8 µM, the TGI (SNB-19 CNS) was 82.5 µM and the TGI (KM12 colon) was > 100 µM. For the same compound, the TGI (U251 CNS) was 34 µM, the TGI (786-0 renal) was 38.9 µM and the TGI (SR leukemia) was > 100 µM. The TGI (IGROV1 ovarian) was > 100 µM, the TGI (RPMI-8226 leukemia) was > 100 µM and the TGI (RXF 393 renal) was 47.3 µM. The TGI (EKVX NSCLC) was > 100 µM, the TGI (CAKI-1 renal) was 80.6 µM and the TGI (HOP-92 NSCLC) was 59.1 µM. The TGI (SN12C renal) was > 100 µM, the TGI (K-562 leukemia) was > 100 µM and the TGI (NCI-H226 lung) was > 82.5 µM. The TGI (HL-60(TB) leukemia) was > 62.6 µM, the TGI (MDA-MB-231 breast) was 44.3 µM and the TGI (NCI-H460 lung) was > 100 µM. For the same compound, the TGI (HCC-2998 colon) was > 100 µM, the TGI (OVCAR-4 ovarian) was > 100 µM and the TGI (MDA-MB-435) was > 100 µM. The TGI (MOLT-4 leukemia) was > 100 µM, the TGI (COLO 205 colon) was > 100 µM and the TGI (UACC-62 melanoma) was > 100 µM. For the same compound, the TGI (HT29 colon) was > 100 µM, the TGI (SNB-75 CNS) was 49.4 µM and the TGI (BT-549 breast) was 46 µM. The TGI (SK-MEL-2 melanoma) was 53.6 µM, the TGI (NCI/ADR-RES ovarian) was > 100 µM and the TGI (NCI-H522 lung) was 44.3 µM. The TGI (SW-620 colon) was > 100 µM, the TGI (HS 578T breast) was > 81.3 µM and the TGI (OVCAR-3 ovarian) was 65 µM. For the same compound, the TGI (MDA-N) was > 100 µM, the TGI (TK-10 renal) was 52.3 µM and the TGI (HOP-62 NSCLC) was 43.5 µM. The TGI (OVCAR-5 ovarian) was > 100 µM, the TGI (UO-31 renal) was > 88.6 µM and the TGI (SF-268 CNS) was > 77.1 µM. For the same compound, the TGI (LOX IMVI melanoma) was > 57 µM, the TGI (ACHN renal) was > 100 µM and the TGI (MCF7 breast) was > 100 µM. For the same compound, the TGI (SK-MEL-5 melanoma) was 77.8 µM, the TGI (HCT-116 colon) was > 61.7 µM and the TGI (SF-539 CNS) was 41 µM. For the same compound, the TGI (HCT-15 colon) was > 100 µM, the TGI (M14 melanoma) was > 100 µM and the TGI (A498 renal) was > 76.7 µM. For the same compound, the TGI (SF-295 CNS) was > 70.3 µM, the TGI (PC-3 prostate) was > 100 µM and the TGI (T-47D breast) was > 82.6 µM. The TGI (SK-MEL-28 melanoma) was > 100 µM, the TGI (NCI-H23 lung) was 58.3 µM and the TGI (CCRF-CEM leukemia) was > 100 µM. The TGI (UACC-257 melanoma) was > 100 µM, the TGI (A549 NSCLC) was > 100 µM and the TGI (MALME-3M melanoma) was > 95.3 µM. For the same compound, the TGI (SK-OV-3 ovarian) was > 84.7 µM and the TGI (DU-145 prostate) was > 100 µM.
For NC(=O)c1cc(C2OC(CO)C(O)C2O)nn1-c1ccc([N+](=O)[O-])cc1 (stereo not drawn), the TGI (OVCAR-8 ovarian) was > 100 µM, the TGI (DMS 273 small cell lung) was > 100 µM and the TGI (DMS 114 small cell lung) was > 100 µM. The TGI (SNB-19 CNS) was > 100 µM, the TGI (KM12 colon) was > 100 µM and the TGI (U251 CNS) was > 100 µM. The TGI (IGROV1 ovarian) was > 100 µM, the TGI (RPMI-8226 leukemia) was > 100 µM and the TGI (RXF 393 renal) was > 100 µM. For the same compound, the TGI (EKVX NSCLC) was > 100 µM, the TGI (CAKI-1 renal) was > 100 µM and the TGI (HOP-92 NSCLC) was > 100 µM. The TGI (SN12C renal) was > 100 µM, the TGI (K-562 leukemia) was > 100 µM and the TGI (NCI-H226 lung) was > 100 µM. For the same compound, the TGI (HL-60(TB) leukemia) was > 100 µM, the TGI (DLD-1 colon) was > 100 µM and the TGI (XF 498 CNS) was > 100 µM. For the same compound, the TGI (NCI-H460 lung) was > 100 µM, the TGI (HCC-2998 colon) was > 100 µM and the TGI (OVCAR-4 ovarian) was > 100 µM. For the same compound, the TGI (MOLT-4 leukemia) was > 100 µM, the TGI (COLO 205 colon) was > 100 µM and the TGI (UACC-62 melanoma) was > 100 µM. For the same compound, the TGI (HT29 colon) was > 100 µM, the TGI (SNB-75 CNS) was > 100 µM and the TGI (SK-MEL-2 melanoma) was > 100 µM. For the same compound, the TGI (HOP-18 NSCLC) was > 100 µM, the TGI (SW-620 colon) was > 100 µM and the TGI (LXFL 529 NSCLC) was > 100 µM. The TGI (OVCAR-3 ovarian) was > 100 µM, the TGI (TK-10 renal) was > 100 µM and the TGI (HOP-62 NSCLC) was > 100 µM. The TGI (KM20L2 colon) was > 100 µM, the TGI (OVCAR-5 ovarian) was > 100 µM and the TGI (UO-31 renal) was > 100 µM. For the same compound, the TGI (SF-268 CNS) was > 100 µM, the TGI (LOX IMVI melanoma) was > 100 µM and the TGI (ACHN renal) was > 100 µM. The TGI (SNB-78 CNS) was > 100 µM, the TGI (SK-MEL-5 melanoma) was > 100 µM and the TGI (HCT-116 colon) was > 100 µM. For the same compound, the TGI (SF-539 CNS) was > 100 µM, the TGI (HCT-15 colon) was > 100 µM and the TGI (M14 melanoma) was > 100 µM. For the same compound, the TGI (A498 renal) was > 100 µM, the TGI (SF-295 CNS) was > 100 µM and the TGI (SK-MEL-28 melanoma) was > 100 µM. The TGI (NCI-H23 lung) was > 100 µM, the TGI (CCRF-CEM leukemia) was > 100 µM and the TGI (UACC-257 melanoma) was > 100 µM. The TGI (A549 NSCLC) was > 100 µM, the TGI (MALME-3M melanoma) was > 100 µM and the TGI (SK-OV-3 ovarian) was > 100 µM.
